Values of other authors, collected in patent US20070149443A1, “Methods of treating obesity using enterostatin” (priority 2005, published 2007).

Settings: administered orally to humans; literature report

enterostatin
did not affect: body weight | energy expenditure | food intake
